# Measurements published in patent US10738028B2, “Spiro three-membered ring, spiro five-membered ring peptide deformylase inhibitor and use thereof in antibacteria and anti-tumor” (priority 2016, dated 2020).
# Key:
# Type in all cases: cell-based
# [1] = system: Streptococcus pneoumoniae (SPN); assay: MIC, two-fold agar dilution (CLSI), clinical isolates
# Text: (§1) 1. The invention adopts the two-fold agar dilution method recommended by the operating procedure of antimicrobial susceptibility testing set by American Clinical and Laboratory Standards Institute (CLSI) to determine the Minimum Inhibitory Concentration (MIC) of the test samples against the tested strains.
# [2] = system: Escherichia coli (including ESBLs, non-ESBLs); assay: as above
# Text: as §1
# [3] = system: methicillin-sensitive Staphylococcus aureus (MSSA); assay: as above
# Text: as §1
# [4] = system: methicillin-resistant Staphylococcus epidermidis (MRSE); assay: as above
# Text: as §1
# [5] = system: methicillin-sensitive Staphylococcus epidermidis (MSSE); assay: as above
# Text: as §1
# [6] = system: Enterococcus faecium (EFM); assay: as above
# Text: as §1
# [7] = system: Enterococcus faecalis (EFA); assay: as above
# Text: as §1
# [8] = system: methicillin-resistant Staphylococcus aureus (MRSA); assay: as above
# Text: as §1
# [9] = system: Moraxella catarrhalis (BCA); assay: as above
# Text: as §1
# [10] = system: HCT-116 colorectal cancer cell line; assay: CCK-8 proliferation inhibition; settings: Homo sapiens, HCT-116, 72 h, concentration of 30 μM; 72 hours; CCK-8; read-out: HCT116 inhibition rate/%
# Protocol: (1) HCT-116 colorectal cancer cell line, A549 lung cancer cell line, MGC-803 gastric cancer cell line, BEL-7402 liver cancer cell line, Jurkat T cell leukemia cell line, HL60 acute myeloid leukemia cell line, Hela cervical cancer cell line, MCF-7 breast cancer cell line, PC3 prostate cancer cell line and SAOS-2 osteosarcoma cell line were made into single cell suspension, 180 μL of which was inoculated into 96-well culture plate, which was cultured overnight in CO2 incubator (37° C., 5% CO2, 95% air).
# (2) Each of the spiro three-membered ring, spiro five membered ring peptide deformylase inhibitors was dissolved in DMSO, and was further formulated into drug solution with required different final concentration using corresponding cell culture medium. The drug solutions were added to the above cells respectively (20 μL/well), with the control group added with 1‰ DMSO, and cultured in a CO2 incubator for 72 hours.
# (3) After incubation for 72 hours, the culture solution was decanted, and 100 μL of 1:10 diluted CCK-8 solution was added.
# Wherein, in step (1), the concentration of the single cell suspension was 2000 cells/well.
# Wherein, in step (2), HCT-116 cells were cultured in McCoy's 5A medium (containing 10% newborn bovine serum, 1% double antibody); A549 and PC3 cells were cultured in F12 medium (containing 10% newborn bovine serum, 1% double antibody); MGC-803, BEL-7402, SAOS-2, Jurkat and HL60 cells were cultured in 1640 medium (containing 10% newborn bovine serum, 1% double antibody); and MCF-7 and Hela cells were cultured in DMEM high glucose medium (containing 10% newborn bovine serum, 1% double antibody).
structure (smiles),measurement,setting,value
CCCC[C@H](CN(O)C=O)C(=O)N1CC2(CC2)C[C@H]1C(=O)Nc1ccc(N2CCOCC2)cc1 [Example 14],MIC (anti-bacterial activity),[1]; strain SPN 16-2,8 µg/mL
same,MIC (anti-bacterial activity),[1]; strain SPN 16-4,0.5 µg/mL
same,MIC (anti-bacterial activity),[2]; strain ECO+ 15-1,> 32 µg/mL
same,MIC (anti-bacterial activity),[2]; strain ECO+ 15-2,> 32 µg/mL
same,MIC (anti-bacterial activity),[2]; strain ECO+ 15-3,> 32 µg/mL
same,MIC (anti-bacterial activity),[2]; strain ECO+ 15-4,> 32 µg/mL
same,MIC (anti-bacterial activity),[2]; strain ECO− 15-1,> 32 µg/mL
same,MIC (anti-bacterial activity),[2]; strain ECO− 15-2,> 32 µg/mL
same,MIC (anti-bacterial activity),[2]; strain ECO− 15-3,> 32 µg/mL
same,MIC (anti-bacterial activity),[2]; strain ECO− 15-4,> 32 µg/mL
same,MIC (anti-bacterial activity),[3]; strain MSSA 15-3,1 µg/mL
same,MIC (anti-bacterial activity),[3]; strain MSSA 15-4,1 µg/mL
same,MIC (anti-bacterial activity),[3]; strain MSSA 15-5,0.25 µg/mL
same,MIC (anti-bacterial activity),[3]; strain MSSA 15-6,1 µg/mL
same,MIC (anti-bacterial activity),[4]; strain MRSE 15-1,0.25 µg/mL
same,MIC (anti-bacterial activity),[4]; strain MRSE 15-2,0.25 µg/mL
same,MIC (anti-bacterial activity),[4]; strain MRSE 15-3,1 µg/mL
same,MIC (anti-bacterial activity),[4]; strain MRSE 15-7,1 µg/mL
same,MIC (anti-bacterial activity),[5]; strain MSSE 15-3,0.25 µg/mL
same,MIC (anti-bacterial activity),[5]; strain MSSE 15-4,0.25 µg/mL
same,MIC (anti-bacterial activity),[5]; strain MSSE 15-5,0.25 µg/mL
same,MIC (anti-bacterial activity),[5]; strain MSSE 15-6,0.125 µg/mL
same,MIC (anti-bacterial activity),[6]; strain EFM 15-1,1 µg/mL
same,MIC (anti-bacterial activity),[6]; strain EFM 15-2,2 µg/mL
same,MIC (anti-bacterial activity),[6]; strain EFM 15-3,0.5 µg/mL
same,MIC (anti-bacterial activity),[6]; strain EFM 15-4,4 µg/mL
same,MIC (anti-bacterial activity),[6]; strain EFM 15-5,0.5 µg/mL
same,MIC (anti-bacterial activity),[6]; strain EFM 15-6,2 µg/mL
same,MIC (anti-bacterial activity),[7]; strain EFA 15-1,8 µg/mL
same,MIC (anti-bacterial activity),[7]; strain EFA 15-2,8 µg/mL
same,MIC (anti-bacterial activity),[7]; strain EFA 15-3,2 µg/mL
same,MIC (anti-bacterial activity),[7]; strain EFA 15-4,8 µg/mL
same,MIC (anti-bacterial activity),[7]; strain EFA 15-5,8 µg/mL
same,MIC (anti-bacterial activity),[7]; strain EFA 15-6,8 µg/mL
same,MIC (anti-bacterial activity),[7]; strain EFA 15-9,8 µg/mL
same,MIC (anti-bacterial activity),[8]; strain MRSA 15-1,1 µg/mL
same,MIC (anti-bacterial activity),[8]; strain MRSA 15-2,1 µg/mL
same,MIC (anti-bacterial activity),[8]; strain MRSA 15-3,1 µg/mL
same,MIC (anti-bacterial activity),[8]; strain MRSA 15-4,1 µg/mL
same,MIC (anti-bacterial activity),[9]; strain BCA 14-1,4 µg/mL
same,MIC (anti-bacterial activity),[9]; strain BCA 14-4,2 µg/mL
same,MIC (anti-bacterial activity),[9]; strain BCA 14-5,2 µg/mL
same,MIC (anti-bacterial activity),[9]; strain BCA 14-6,2 µg/mL
same,MIC (anti-bacterial activity),[9]; strain BCA 14-7,1 µg/mL
same,MIC (anti-bacterial activity),[9]; strain BCA 14-8,2 µg/mL
same,MIC (anti-bacterial activity),[9]; strain BCA 14-10,0.5 µg/mL
same,inhibition at 30 µM,[10],21%
